Consider 3 compounds from US20030144352A1, “Antimuscarinic aerosol” (priority 2001, published 2003).

The conditions of data set [1]: human serum; Nilvebrant et al., Life Sciences 60 (1997); cited from earlier work.
Data set [2] in a line: Plasma concentration of tolterodine after aerosol administration (inhalation) in mice. Format: in vivo. How it is done: Female BALB/C mice, weight range 19-22 g, were obtained from Charles River Laboratories (Kingston, N.C.). They received food and water ad libitum. All procedures in these studies were in compliance with the Animal Welfare Act Regulation, 9CFR Parts 1 and 2, Publication (NIH) 85-23, 1985.
This nebulizer generates a mean aerosol particle size of 1.3 microns at a rate of approximately 0.25 ml/minute.
Blood samples were taken via cardiac puncture under isoflurane anesthesia at 5, 15, 30, 60, 120, and 240 minutes after in treatment and at 2.5, 5, 15, 30, 60, and 120 minutes after aerosol drug treatment.
The samples were collected in tubes containing EDTA and centrifuged at 12000×g for four minutes. Plasma was removed and stored at −70° C. until assay.
Plasma samples were extracted via a liquid/liquid extraction technique. […] Chromatographically, the analyte and internal standard were resolved on a Zorbax ACE Phenyl column (2.1×50mm) using a gradient elution. The total analysis time was 4 minutes with a limit of quantization of 100 pg/mL.
Female BALB/c mice, weight range 19-22 g, were obtained from Charles River Laboratories (Kingston, N.C.). They received food and water ad libitum. All procedures in these studies were in compliance with the Animal Welfare Act Regulation, 9CFR Parts 1 and 2, Publication (NIH) 85-23, 1985.
The duration of aerosol treatment was five minutes. Blood samples were collected via cardiac puncture at 2.5, 5, 15, 30, 60, and 120 minutes following the end of the drug nebulization period.
The samples from were collected in tubes containing EDTA and centrifuged at 12000×g for four minutes. Plasma was removed and stored at −70° C. until assay.

For the compound `Cc1ccc(O)c([C@H](CCN(C(C)C)C(C)C)c2ccccc2)c1` [tolterodine, 2-[(1R)-3-(diisopropylamino)-1-phenylpropyl]-4-methylphenol], the Fraction unbound in data set [1] is recorded as 3.7%. In addition, the “Rise in tolterodine plasma concentration” value in data set [2] (mice, aerosol administration (FIGS. 1 and 2)) is “within a few minutes a distinct and instant rise”. In data set [2] (mice, inhalation of nebulized solutions at 0.1, 0.5 or 1.0 mg/mL), the “Absorption into the circulation” value is “rapidly absorbed into the circulation”.

Turning to `Cc1ccc(O)c([C@H](CCN(C(C)C)C(C)C)c2ccccc2)c1.O=C(O)C(O)C(O)C(=O)O` [tolterodine L-tartrate, (R)-N,N-diisopropyl-3-(2-hydroxy-5-methylphenyl)-3-phenylpropanamine L-tartrate], in data set [2] (female BALB/c mice, inhalation of nebulized 0.1 mg/mL solution for five minutes, 2.5-120 minutes after nebulization), the Plasma levels result is “at or below-detection limits”.

Regarding `CC(C)N(CC[C@H](c1ccccc1)c1cc(CO)ccc1O)C(C)C` [5-HM, 2-[(1R)-3-(diisopropylamino)-1-phenylpropyl]-4-(hydroxymethyl)phenol], the Fraction unbound in data set [1] is 36%.
